{"source": "PubChem BioAssay AID2060897", "about": "(Molecular Pharmacology Branch, DTP, NCI, 2025)", "system": "966289-007-R4-J1-PDC complex spheroid viability", "test": "Anticancer human tumor 966289-007-R4-J1-PDC patient-derived pancreatic adenocarcinoma cell line growth inhibition [RAS]", "conditions": "for pIC50: curve of first compound; for viability, T/C: stronger effect = lower value", "text": "RAS pathway inhibitors in Combinations in Complex Spheroids\nA high-throughput screen of multi-cell type tumor spheroids was designed to identify active combinations of RAS pathway inhibitors and targeted small molecules. Complex spheroids include a stromal component modeled by human endothelial cells (HUVEC) and fibroblasts modeled by human mesenchymal stem cells (MSCs). The concentration ranges selected for each drug and investigational agent were based upon clinically achievable concentrations if the clinical Cmax of the agent was known.\nCompounds. The drugs and investigational agents: abemaciclib (NSC768073), cobimetinib (NSC768068), divarasib (GDC6063, NSC841802), docetaxel (NSC628503), GDC-1971 (RLY-1971, NSC841576), gemcitabine (NSC613327), inavolisib (NSC800729), ipatasertib (NSC767898), KB-0742 (NSC834161), MRTX-1133 (NSC836407), osimertinib (NSC779217), RMC-4630 (NSC839698), RMC-6236 (NSC851965), RMC-6291 (NSC852671), Ro-3306 (NSC812927), sapanisertib (NSC764658), SN-38 (NSC673596), staurosporine (NSC755774), SY5609 (NSC837396), and tovorafenib (DAY101, NSC766906), were obtained from the National Cancer Institute (NCI) Developmental Therapeutics Program Chemical Repository. The FDA-approved anticancer drug set is available from the NCI Developmental Therapeutics Program. […] The stock solutions were prepared in dimethyl sulfoxide (DMSO, Sigma-Aldrich, St. Louis, MO, cat. D2650) at 800-fold the tested concentration and stored at -70 degrees C prior to their use. All drugs and investigational agents were tested over a range starting from a high concentration at or near the clinical Cmax and decreasing in half-log increments. If the clinical Cmax for an agent had not been determined, the highest concentration tested was 10 microM.\nCell Culture. All cells were maintained in an incubator at 37 degrees C and 5% CO2 with 95% humidity. The PDC lines were cultured according to standard operating procedures established by the NCI PDMR. All PDCs were thawed and cultured in Matrigel-coated flasks prepared with a working solution of 1X Ham's F-12 nutrient mix, without supplementation (Invitrogen, Waltham, MA, cat. 11765054), 100 U/mL penicillin-streptomycin (Invitrogen, cat. 15140122), and 2.5% Matrigel (Corning Inc., Corning, NY, cat. 354248) for the first three passages. The 362531-283-R-J2-PDC and 782815-120-R-J1-PDC lines were cultured in 6C/Colon 1B media, which includes advanced DMEM/F-12 (Thermo Fisher Scientific, cat. 12634028), 10 mM HEPES (Thermo Fisher Scientific, cat. 15630080), 1X GlutaMAX supplement (Thermo Fisher Scientific, cat. 35050061), 0.1 mg/mL primocin (InvivoGen, San Diego, CA, cat. ant-pm-2), 10% defined fetal bovine serum, heat inactivated (HyClone Laboratories Inc., Logan, UT, cat. SH30070.03HI), 50% L-WRN conditioned media (ATCC, cat. CRL-3276), 1.25 mM N-Acetyl-L-cysteine (Sigma-Aldrich, cat. A9165), 10 mM nicotinamide (Sigma-Aldrich, cat. N0636), 1X B-27 supplement (Thermo Fisher Scientific, cat. 17504044), 1X N-2 supplement (Thermo Fisher Scientific, cat. 17502048), 50 ng/mL human EGF (Thermo Fisher Scientific, cat. PHG0311), and 10 microM Y-27632 dihydrochloride (Tocris Bioscience, cat. 1254). The K12877-001-R-J1-PDC line was cultured in 6I media, which includes all 6C/Colon 1B media plus 10 ng/mL human FGF-10 (PeproTech, cat. 100-26), 1 ng/mL human FGF-2 (PeproTech, cat. 100-18B), 1 µM prostaglandin E2 (Tocris Bioscience, cat. 2296), […] hydrocortisone (Sigma-Aldrich, cat. H4001), and […] bovine insulin (Sigma-Aldrich, cat. I6634). The K86415-001-R-J1-PDC line was cultured in 6D media, which includes all 6C/Colon 1B media components minus the L-WRN conditioned media. The 485176-168-R4-J1-PDC was cultured in PANC media, which includes all 6C/Colon 1B media plus 100 ng/mL human FGF-10 (PeproTech, cat. 100-26), 500 nM SB-431542 (Selleckchem, cat. S1067), and 10 nM gastrin (Tocris Bioscience, cat. 3006). […]", "note": "pIC50: −log10 of the molar value.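 Note: spheroids exposed to agents for one week before readout.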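 Throughout, for viability, T/C: percent viability relative to DMSO vehicle control wells as 100%.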"}
{"smiles": "CC(C)NCC(C(=O)N1CCN(c2ncnc3c2C(C)CC3O)CC1)c1ccc(Cl)cc1", "note": "(configuration not stated) + C#Cc1c(F)ccc2cc(O)cc(-c3ncc4c(N5CC6CCC(C5)N6)nc(OCC56CCCN5CC(F)C6)nc4c3F)c12", "values": [{"measurement": "pIC50", "setting": "second compound 0.0316 µM", "result": 5.19}, {"measurement": "pIC50", "setting": "second compound 0.1 µM", "result": 5.22}, {"measurement": "pIC50", "setting": "second compound 0.316 µM", "result": 5.25}, {"measurement": "pIC50", "setting": "second compound 1 µM", "result": 5.16}, {"measurement": "pIC50", "setting": "second compound 3.16 µM", "result": 5.25}, {"measurement": "pIC50", "setting": "second compound 10 µM", "result": 5.56}, {"measurement": "viability, T/C", "setting": "second compound 0.0316 µM, first compound 0.0316 µM", "result": 98.7, "unit": "%"}, {"measurement": "viability, T/C", "setting": "second compound 0.0316 µM, first compound 0.1 µM", "result": 111, "unit": "%"}, {"measurement": "viability, T/C", "setting": "second compound 0.0316 µM, first compound 0.316 µM", "result": 108, "unit": "%"}, {"measurement": "viability, T/C", "setting": "second compound 0.0316 µM, first compound 1 µM", "result": 111, "unit": "%"}, {"measurement": "viability, T/C", "setting": "second compound 0.0316 µM, first compound 3.16 µM", "result": 66.9, "unit": "%"}, {"measurement": "viability, T/C", "setting": "second compound 0.0316 µM, first compound 10 µM", "result": 39.3, "unit": "%"}, {"measurement": "viability, T/C", "setting": "second compound 0.1 µM, first compound 0.0316 µM", "result": 103, "unit": "%"}, {"measurement": "viability, T/C", "setting": "second compound 0.1 µM, first compound 0.1 µM", "result": 109, "unit": "%"}, {"measurement": "viability, T/C", "setting": "second compound 0.1 µM, first compound 0.316 µM", "result": 124, "unit": "%"}, {"measurement": "viability, T/C", "setting": "second compound 0.1 µM, first compound 1 µM", "result": 101, "unit": "%"}, {"measurement": "viability, T/C", "setting": "second compound 0.1 µM, first compound 3.16 µM", "result": 66.4, "unit": "%"}, {"measurement": "viability, T/C", "setting": "second compound 0.1 µM, first compound 10 µM", "result": 37.4, "unit": "%"}, {"measurement": "viability, T/C", "setting": "second compound 0.316 µM, first compound 0.0316 µM", "result": 106, "unit": "%"}, {"measurement": "viability, T/C", "setting": "second compound 0.316 µM, first compound 0.1 µM", "result": 103, "unit": "%"}, {"measurement": "viability, T/C", "setting": "second compound 0.316 µM, first compound 0.316 µM", "result": 128, "unit": "%"}, {"measurement": "viability, T/C", "setting": "second compound 0.316 µM, first compound 1 µM", "result": 102, "unit": "%"}, {"measurement": "viability, T/C", "setting": "second compound 0.316 µM, first compound 3.16 µM", "result": 66.6, "unit": "%"}, {"measurement": "viability, T/C", "setting": "second compound 0.316 µM, first compound 10 µM", "result": 33.6, "unit": "%"}, {"measurement": "viability, T/C", "setting": "second compound 1 µM, first compound 0.0316 µM", "result": 104, "unit": "%"}, {"measurement": "viability, T/C", "setting": "second compound 1 µM, first compound 0.1 µM", "result": 106, "unit": "%"}, {"measurement": "viability, T/C", "setting": "second compound 1 µM, first compound 0.316 µM", "result": 111, "unit": "%"}, {"measurement": "viability, T/C", "setting": "second compound 1 µM, first compound 1 µM", "result": 117, "unit": "%"}, {"measurement": "viability, T/C", "setting": "second compound 1 µM, first compound 3.16 µM", "result": 74.6, "unit": "%"}, {"measurement": "viability, T/C", "setting": "second compound 1 µM, first compound 10 µM", "result": 38.6, "unit": "%"}, {"measurement": "viability, T/C", "setting": "second compound 3.16 µM, first compound 0.0316 µM", "result": 116, "unit": "%"}, {"measurement": "viability, T/C", "setting": "second compound 3.16 µM, first compound 0.1 µM", "result": 106, "unit": "%"}, {"measurement": "viability, T/C", "setting": "second compound 3.16 µM, first compound 0.316 µM", "result": 114, "unit": "%"}, {"measurement": "viability, T/C", "setting": "second compound 3.16 µM, first compound 1 µM", "result": 96.7, "unit": "%"}, {"measurement": "viability, T/C", "setting": "second compound 3.16 µM, first compound 3.16 µM", "result": 67.5, "unit": "%"}, {"measurement": "viability, T/C", "setting": "second compound 3.16 µM, first compound 10 µM", "result": 33, "unit": "%"}, {"measurement": "viability, T/C", "setting": "second compound 10 µM, first compound 0.0316 µM", "result": 110, "unit": "%"}, {"measurement": "viability, T/C", "setting": "second compound 10 µM, first compound 0.1 µM", "result": 111, "unit": "%"}, {"measurement": "viability, T/C", "setting": "second compound 10 µM, first compound 0.316 µM", "result": 125, "unit": "%"}, {"measurement": "viability, T/C", "setting": "second compound 10 µM, first compound 1 µM", "result": 103, "unit": "%"}, {"measurement": "viability, T/C", "setting": "second compound 10 µM, first compound 3.16 µM", "result": 43, "unit": "%"}, {"measurement": "viability, T/C", "setting": "second compound 10 µM, first compound 10 µM", "result": 26.1, "unit": "%"}]}
{"smiles": "O=C(c1ccc(F)c(F)c1Nc1ccc(I)cc1F)N1CC(O)([C@@H]2CCCCN2)C1", "values": [{"measurement": "viability, T/C", "setting": "compound 0.00316 µM", "result": "90.5% [middle of 4 runs]"}, {"measurement": "viability, T/C", "setting": "compound 0.01 µM", "result": "97.5% [middle of 4 runs]"}, {"measurement": "viability, T/C", "setting": "compound 0.0316 µM", "result": "90.4% [middle of 4 runs]"}, {"measurement": "viability, T/C", "setting": "compound 0.1 µM", "result": "75.8% [middle of 4 runs]"}, {"measurement": "viability, T/C", "setting": "compound 0.316 µM", "result": "68.9% [middle of 4 runs]"}]}
